# Data: PubChem BioAssay AID2060886 (Molecular Pharmacology Branch, DTP, NCI, 2025)
# Test system: 653999-131-R-J2-PDC complex spheroids, growth inhibition
# Experiment: Anticancer human tumor 653999-131-R-J2-PDC patient-derived lung adenocarcinoma cell line growth inhibition [RAS]
# Settings: for viability, T/C: stronger effect = lower value
# In short: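 Multi-cell-type spheroids: tumor cells plus HUVEC endothelial cells and mesenchymal stem cells. RAS-pathway inhibitors were combined with targeted agents, each dosed in half-log steps down from clinical Cmax, or from 10 microM when Cmax was unknown.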
# [1] = curve of first compound, second compound 0.000949 µM
# [2] = curve of first compound, second compound 0.003 µM
# [3] = curve of first compound, second compound 0.00949 µM
# [4] = curve of first compound, second compound 0.03 µM
# [5] = curve of first compound, second compound 0.0949 µM
# [6] = curve of first compound, second compound 0.3 µM
# [7] = second compound 0.000949 µM, first compound 0.0316 µM
# [8] = second compound 0.000949 µM, first compound 0.1 µM
# [9] = second compound 0.000949 µM, first compound 0.316 µM
# [10] = second compound 0.000949 µM, first compound 1 µM
# [11] = second compound 0.000949 µM, first compound 3.16 µM
# [12] = second compound 0.000949 µM, first compound 10 µM
# [13] = second compound 0.003 µM, first compound 0.0316 µM
# [14] = second compound 0.003 µM, first compound 0.1 µM
# [15] = second compound 0.003 µM, first compound 0.316 µM
# [16] = second compound 0.003 µM, first compound 1 µM
# [17] = second compound 0.003 µM, first compound 3.16 µM
# [18] = second compound 0.003 µM, first compound 10 µM
# [19] = second compound 0.00949 µM, first compound 0.0316 µM
# [20] = second compound 0.00949 µM, first compound 0.1 µM
# [21] = second compound 0.00949 µM, first compound 0.316 µM
# [22] = second compound 0.00949 µM, first compound 1 µM
# [23] = second compound 0.00949 µM, first compound 3.16 µM
# [24] = second compound 0.00949 µM, first compound 10 µM
# [25] = second compound 0.03 µM, first compound 0.0316 µM
# [26] = second compound 0.03 µM, first compound 0.1 µM
# [27] = second compound 0.03 µM, first compound 0.316 µM
# [28] = second compound 0.03 µM, first compound 1 µM
# [29] = second compound 0.03 µM, first compound 3.16 µM
# [30] = second compound 0.03 µM, first compound 10 µM
# [31] = second compound 0.0949 µM, first compound 0.0316 µM
# [32] = second compound 0.0949 µM, first compound 0.1 µM
# [33] = second compound 0.0949 µM, first compound 0.316 µM
# [34] = second compound 0.0949 µM, first compound 1 µM
# [35] = second compound 0.0949 µM, first compound 3.16 µM
# [36] = second compound 0.0949 µM, first compound 10 µM
# [37] = second compound 0.3 µM, first compound 0.0316 µM
# [38] = second compound 0.3 µM, first compound 0.1 µM
# [39] = second compound 0.3 µM, first compound 0.316 µM
# [40] = second compound 0.3 µM, first compound 1 µM
# [41] = second compound 0.3 µM, first compound 3.16 µM
# [42] = second compound 0.3 µM, first compound 10 µM
# 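Note: spheroids exposed to the agents for seven days before the readout.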
compound,measurement,setting,value
Cc1nc(N2CCC3(CC2)COC(C)C3N)c(CO)nc1Sc1ccnc(N)c1Cl (stereo not drawn) + CCn1c(-c2cccnc2C(C)OC)c2c3cc(ccc31)N1CCOC(CC(NC(=O)C(C(C)C)N(C)C(=O)C3(F)CCN(C(=O)C#CC(C)(C)N(C)C)CC3)C(=O)N3CCCC(N3)C(=O)OCC(C)(C)C2)C1,IC50,[1],> 10000 nM
same,IC50,[2],> 10000 nM
same,IC50,[3],> 10000 nM
same,IC50,[4],> 10000 nM
same,IC50,[5],> 10000 nM
same,IC50,[6],> 10000 nM
same,"viability, T/C",[7],85.9%
same,"viability, T/C",[8],87.6%
same,"viability, T/C",[9],81.8%
same,"viability, T/C",[10],67.6%
same,"viability, T/C",[11],81.7%
same,"viability, T/C",[12],78.9%
same,"viability, T/C",[13],103%
same,"viability, T/C",[14],98.2%
same,"viability, T/C",[15],83.5%
same,"viability, T/C",[16],70.4%
same,"viability, T/C",[17],78.6%
same,"viability, T/C",[18],80.3%
same,"viability, T/C",[19],96%
same,"viability, T/C",[20],71%
same,"viability, T/C",[21],84.8%
same,"viability, T/C",[22],87%
same,"viability, T/C",[23],75.2%
same,"viability, T/C",[24],81.2%
same,"viability, T/C",[25],89.6%
same,"viability, T/C",[26],76.8%
same,"viability, T/C",[27],83.6%
same,"viability, T/C",[28],75.8%
same,"viability, T/C",[29],83.2%
same,"viability, T/C",[30],76.8%
same,"viability, T/C",[31],92%
same,"viability, T/C",[32],82.2%
same,"viability, T/C",[33],93.6%
same,"viability, T/C",[34],86.5%
same,"viability, T/C",[35],94.4%
same,"viability, T/C",[36],77.4%
same,"viability, T/C",[37],84.1%
same,"viability, T/C",[38],88.3%
same,"viability, T/C",[39],72.4%
same,"viability, T/C",[40],89.7%
same,"viability, T/C",[41],80.3%
same,"viability, T/C",[42],81.7%
CC(C)NCC(C(=O)N1CCN(c2ncnc3c2C(C)CC3O)CC1)c1ccc(Cl)cc1 (stereo not drawn) + C#Cc1c(F)ccc2cc(O)cc(-c3ncc4c(N5CC6CCC(C5)N6)nc(OCC56CCCN5CC(F)C6)nc4c3F)c12,IC50,"curve of first compound, second compound 0.0316 µM",1220 nM
same,IC50,"curve of first compound, second compound 0.1 µM",593 nM
same,IC50,"curve of first compound, second compound 0.316 µM",190 nM
same,IC50,"curve of first compound, second compound 1 µM",84.5 nM
same,IC50,"curve of first compound, second compound 3.16 µM",< 31.6 nM
same,IC50,"curve of first compound, second compound 10 µM",< 31.6 nM
same,"viability, T/C","second compound 0.0316 µM, first compound 0.0316 µM",109%
same,"viability, T/C","second compound 0.0316 µM, first compound 0.1 µM",84.2%
same,"viability, T/C","second compound 0.0316 µM, first compound 0.316 µM",72%
same,"viability, T/C","second compound 0.0316 µM, first compound 1 µM",53.6%
same,"viability, T/C","second compound 0.0316 µM, first compound 3.16 µM",35%
same,"viability, T/C","second compound 0.0316 µM, first compound 10 µM",28.9%
same,"viability, T/C","second compound 0.1 µM, first compound 0.0316 µM",97.6%
same,"viability, T/C","second compound 0.1 µM, first compound 0.1 µM",55.7%
same,"viability, T/C","second compound 0.1 µM, first compound 0.316 µM",70.4%
same,"viability, T/C","second compound 0.1 µM, first compound 1 µM",43.6%
same,"viability, T/C","second compound 0.1 µM, first compound 3.16 µM",37.6%
same,"viability, T/C","second compound 0.1 µM, first compound 10 µM",32.1%
same,"viability, T/C","second compound 0.316 µM, first compound 0.0316 µM",56.5%
same,"viability, T/C","second compound 0.316 µM, first compound 0.1 µM",62.6%
same,"viability, T/C","second compound 0.316 µM, first compound 0.316 µM",38.8%
same,"viability, T/C","second compound 0.316 µM, first compound 1 µM",38.9%
same,"viability, T/C","second compound 0.316 µM, first compound 3.16 µM",26.2%
same,"viability, T/C","second compound 0.316 µM, first compound 10 µM",20.5%
same,"viability, T/C","second compound 1 µM, first compound 0.0316 µM",64.7%
same,"viability, T/C","second compound 1 µM, first compound 0.1 µM",40.8%
same,"viability, T/C","second compound 1 µM, first compound 0.316 µM",45%
same,"viability, T/C","second compound 1 µM, first compound 1 µM",21%
same,"viability, T/C","second compound 1 µM, first compound 3.16 µM",19.4%
same,"viability, T/C","second compound 1 µM, first compound 10 µM",14%
same,"viability, T/C","second compound 3.16 µM, first compound 0.0316 µM",36.9%
same,"viability, T/C","second compound 3.16 µM, first compound 0.1 µM",43.9%
same,"viability, T/C","second compound 3.16 µM, first compound 0.316 µM",27.9%
same,"viability, T/C","second compound 3.16 µM, first compound 1 µM",19%
same,"viability, T/C","second compound 3.16 µM, first compound 3.16 µM",12.7%
same,"viability, T/C","second compound 3.16 µM, first compound 10 µM",9.87%
same,"viability, T/C","second compound 10 µM, first compound 0.0316 µM",23.3%
same,"viability, T/C","second compound 10 µM, first compound 0.1 µM",23.3%
same,"viability, T/C","second compound 10 µM, first compound 0.316 µM",22.8%
same,"viability, T/C","second compound 10 µM, first compound 1 µM",14.1%
same,"viability, T/C","second compound 10 µM, first compound 3.16 µM",9.37%
same,"viability, T/C","second compound 10 µM, first compound 10 µM",5.49%
CC1(O)CCCC1n1c(=O)c(C(F)F)cc2cnc(NC3CCN(S(C)(=O)=O)CC3)nc21 (stereo not drawn),"viability, T/C",compound 0.0316 µM,89.5% [middle of 4 runs]
same,"viability, T/C",compound 0.1 µM,69.3% [middle of 4 runs]
same,"viability, T/C",compound 0.316 µM,65.3% [middle of 4 runs]
same,"viability, T/C",compound 1 µM,66.8% [middle of 4 runs]
same,"viability, T/C",compound 3.16 µM,73.8% [middle of 4 runs]
same,"viability, T/C",compound 10 µM,35.3% [middle of 4 runs]
same,IC50,curve of compound,6.68 µM [middle of 4 runs]
CC(=O)OC12COC1CC(O)C1(C)C(=O)C(O)C3=C(C)C(OC(=O)C(O)C(NC(=O)OC(C)(C)C)c4ccccc4)CC(O)(C(OC(=O)c4ccccc4)C21)C3(C)C (stereo not drawn) + CCn1c(-c2cc(N3CCN(C)CC3)cnc2C(C)OC)c2c3cc(ccc31)-c1csc(n1)CC(NC(=O)C1CC1C)C(=O)N1CCCC(N1)C(=O)OCC(C)(C)C2,IC50,[1],< 31.6 nM
same,IC50,[2],< 31.6 nM
same,IC50,[3],< 31.6 nM
same,IC50,[4],< 31.6 nM
same,IC50,[5],< 31.6 nM
same,IC50,[6],< 31.6 nM
same,"viability, T/C",[7],38.1%
same,"viability, T/C",[8],39.4%
same,"viability, T/C",[9],42.8%
same,"viability, T/C",[10],43.5%
same,"viability, T/C",[11],48.8%
same,"viability, T/C",[12],51.6%
same,"viability, T/C",[13],29.9%
same,"viability, T/C",[14],27%
same,"viability, T/C",[15],27.6%
same,"viability, T/C",[16],35.4%
same,"viability, T/C",[17],30.9%
same,"viability, T/C",[18],31.7%
same,"viability, T/C",[19],14.9%
same,"viability, T/C",[20],21%
same,"viability, T/C",[21],20.7%
same,"viability, T/C",[22],21.9%
same,"viability, T/C",[23],21.7%
same,"viability, T/C",[24],19.1%
same,"viability, T/C",[25],13.3%
same,"viability, T/C",[26],13.2%
same,"viability, T/C",[27],12.8%
same,"viability, T/C",[28],13.2%
same,"viability, T/C",[29],14%
same,"viability, T/C",[30],13.1%
same,"viability, T/C",[31],11.5%
same,"viability, T/C",[32],12.1%
same,"viability, T/C",[33],13.8%
same,"viability, T/C",[34],10.6%
same,"viability, T/C",[35],12.6%
same,"viability, T/C",[36],12.2%
same,"viability, T/C",[37],8.97%
same,"viability, T/C",[38],10.1%
same,"viability, T/C",[39],12%
same,"viability, T/C",[40],13.4%
same,"viability, T/C",[41],12.2%
same,"viability, T/C",[42],12.3%
